Assay results reported in US10954300B2, “Use of pentoxifylline with immune checkpoint-blockade therapies for the treatment of melanoma” (THE TRUSTEES OF COLUMBIA UNIVERSITY IN THE CITY OF NEW YORK, priority 2015, dated 2021).

Experiments:
B16F10 cells = assay: B16F10 metastatic melanoma, lung foci; type: in vivo, C57Bl/6J mice; settings: B16F10 i.v.; early PTXF treatment
Description: (§1) 5×10^4 B16F1 or 5×10^5 CT-26 or BRAF^[…]^-/- cells diluted in sterile PBS1X were injected subcutaneously into the shaved flank of each mouse. For metastasis experiments, 2.5×10^4 B16F10 cells were injected intravenously in the tail vein. […] Anti-PD-1 (RMP1-14), anti-PD-L1 (10F.9G2) and anti-CD8 (YTS.169-4) mAbs were obtained from BioXCell. Rat IgG isotype control was from R&D Systems.

Treg cells [1] = assay: In vitro suppression assay with PTXF-treated Treg cells; type: cell-based, mice; settings: vs mock-treated Treg cells
Treg cells [2] = assay: Flow cytometry of PTXF-treated Treg cells; type: cell-based, mice; settings: 16 h stimulation, 500 μg/mL PTXF
Description: Cells were isolated from thymus, spleen and lymph nodes by mechanical desegregation in PBS+ FBS 3%. For tumor-infiltrating cell suspensions, total tumors were digested in DMEM (Gibco) supplemented with 1 mg/ml collagenase type IV (Sigma) and 1 mg/ml DNase I (Sigma) for 40 minutes at 37° C., followed by centrifugation in a 36% Percoll solution. For intracellular cytokines analyses, cell suspensions were incubated 3 hours with PMA (Sigma, 50 ng/mL), ionoymycin (Sigma, 1 μg/mL) in the presence of Golgi Plug (BD), or incubated 4 hours with mitomycin C-treated WT splenocytes loaded with […] gp100/pmel 17 peptide (Neo Biolab) in the presence of Golgi Plug. Cells were then stained with mAbs purchased by eBioscience or Tonbo Bioscience. Foxp3 and cytokine staining were performed using the eBioscience kit and protocol. Cells were acquired on a LSR II (BD Biosciences) and analyzed with FlowJo (Tree Star) software. […] Total cells suspensions were then activated with 5 μg/mL plate-coated anti-mCD3, 1 μg/ml soluble anti-mCD28 (BioLegend) and 10 ng/mL mIL-2, overnight at 37 C. Treg cells were then washed for further use.

Treg cells [3] = assay: RNA-Seq of PTXF-treated Treg cells; type: cell-based, mice; settings: 500 μg/mL PTXF
Description: Total cells suspensions were then activated with 5 μg/mL plate-coated anti-mCD3, 1 μg/ml soluble anti-mCD28 (BioLegend) and 10 ng/mL mIL-2, overnight at 37 C. Treg cells were then washed for further use. Total RNA was extracted using a Qiagen Rneasy Mini Kit with DNase treatment. For qPCR, RNA was reverse transcribed by Superscript III (Invitrogen). cDNAs were used for PCR with SYBR Green reagents (Quanta Biosciences, Gaithersburg, Md.) on a C1000 Touch thermal cycler (Bio Rad, Hercules, Calif.). The data was normalized to GAPDH expression. Primers sequences can be sent under request. For RNA-sequencing, libraries were prepared using an Illumina TruSeq Library Kit and sequenced by an Illumina 2500 instrument. Upon sequencing, raw FASTQ files were aligned on the mm10 genome using STAR aligner with default parameters (Dobin et al., 2013). Aligned fragments were then counted and annotated using Rsamtools v3.2 and the TxDb.Mmusculus.UCSC.mm10.knownGene' version 3.1.2 transcript database respectively. Normalized FPKM (fragments per kilobase per million mapped reads) were obtained using the robust FPKM estimate function of DeSeq2 v1.10.1 after removing the batch effect using the ComBat function of the sva package v3.18.0. Differentially expressed genes were obtained using the DESeqResults function of the same package. All p-values were adjusted for multiple comparison using the Benjamini & Hochberg FDR algorithm. For gene set enrichment analysis, the GSEA software was used, and Molecular Signature Database (MSigDB) including the ImmuneSigDB (C7 collection)(Godec et al., 2016; Subramanian et al., 2005).

B16F1 cells = assay: B16F1 tumor growth in immunodeficient mice; type: in vivo, RAG1−/− mice; settings: PTXF vs PBS
Description: as §1

Treg cells [4] = assay: In vivo suppression (colitis) assay with PTXF-treated Treg cells; design: species or system RAG1−/− mice; settings: Treg transferred with naïve Tconv cells
Description: Total cells suspensions were then activated with 5 μg/mL plate-coated anti-mCD3, 1 μg/ml soluble anti-mCD28 (BioLegend) and 10 ng/mL mIL-2, overnight at 37 C. Treg cells were then washed for further use. For in vitro assays, CD45.1^+ naïve conventional CD4+ T cells were magnetically isolated (Miltenyi) and labelled with CellTrace Violet Proliferation Tracker (Life Technologies). They were cultured with T-cell depleted, mitomycin C-treated WT splenocytes and 2.5 μg/mL anti-mCD3, in the presence or not of treated Treg cells as described above. Proliferation of CD45.1^+ T cells was assessed by FACS at D4. The % of suppression was calculated as described. For in vivo assays, 4.10^5 naïve Tconv cells were isolated as above and transferred with or without 1.10^5 Treg cells, to the retro-orbital sinus of 6-9 week-old RAG1^−/− mice. Recipients were then weighed every week and euthanized when weight loss was >30%.

## CC(=O)CCCCn1c(=O)c2c(ncn2C)n(C)c1=O [PTXF, 1-(5-oxohexyl)-3,7-dimethylxanthine]
B16F10 cells
  total number of metastatic foci in lungs: significantly decreased
Treg cells [1]
  suppression of effector T-cell proliferation by PTXF-treated Treg cells: modest, but significant, reduction
Treg cells [2]
  expression of Treg markers such as Foxp3, CD25 and Helios: significantly decreased expression
Treg cells [3]
  Foxp3 mRNA: unaffected
  expression of Cbl-b: up-regulated
  expression of Gzmb and Tgfb1: decreased expression
  expression of c-Rel mRNA: unaffected
  expression of genome organizer Sat1: up-regulated
B16F1 cells
  tumor growth in immunodeficient background: no effect on tumor growth
Treg cells [4]
  prevention of colitis by PTXF-treated Treg: completely failed to prevent colitis
